In ChEMBL document CHEMBL1777672, “Synthesis and antifungal activities of natural and synthetic biflavonoids” (2011):
≈ marks a conversion by molar mass, not a printed value. Calls of active or inactive are those of the source. No cut-off for these calls is given here.

Legend:
Candida albicans [1] = experiment: Antifungal activity against Candida albicans ATCC 90028 after 48 hrs by broth microdilution technique; format: functional; conditions: ATCC 90028, 48 h
Aspergillus niger [2] = experiment: Antifungal activity against Aspergillus niger ATCC 16404 after 48 hrs by broth microdilution technique; format: functional; conditions: ATCC 16404, 48 h
Cryptococcus neoformans [3] = experiment: Antifungal activity against Cryptococcus neoformans ATCC 14116 after 72 hrs by broth microdilution technique; format: functional; conditions: ATCC 14116, 72 h
Fusarium solani = experiment: Antifungal activity against Fusarium solani ATCC 36031 after 48 hrs by agar diffusion bioautography method; format: functional, organism-based
Aspergillus oryzae = experiment: Antifungal activity against Aspergillus oryzae ATCC 10124 after 48 hrs by agar diffusion bioautography method; format: functional, organism-based
Aspergillus niger [4] = experiment: Antifungal activity against Aspergillus niger ATCC 16404 after 48 hrs by agar diffusion bioautography method; format: functional, organism-based
Candida parapsilosis [5] = experiment: Antifungal activity against Candida parapsilosis ATCC 22019 after 48 hrs by agar diffusion bioautography method; format: functional, organism-based
Cryptococcus neoformans [6] = experiment: Antifungal activity against Cryptococcus neoformans ATCC 14116 after 72 hrs by agar diffusion bioautography method; format: functional, organism-based
[7] = Antifungal activity against Rhizopus stolonifer (+) ATCC 6227b after 48 hrs by agar diffusion bioautography method; format: functional
Candida albicans [8] = experiment: Antifungal activity against Candida albicans ATCC 90028 after 48 hrs by agar diffusion bioautography method; format: functional, organism-based
Candida parapsilosis [9] = experiment: Antifungal activity against Candida parapsilosis ATCC 22019 after 48 hrs by broth microdilution technique; format: functional; conditions: Lodderomyces parapsilosis, ATCC 22019, 48 h
[10] = Antifungal activity against Rhizopus stolonifer (+) ATCC 6227b after 48 hrs by broth microdilution technique; format: functional

Row | Structure (SMILES) | MIC (Candida albicans [1]) [µM] | MIC (Aspergillus niger [2]) [µM] | MIC (Cryptococcus neoformans [3]) [µM] | Activity (Fusarium solani) | Activity (Aspergillus oryzae) | Activity (Aspergillus niger [4]) | Activity (Candida parapsilosis [5]) | Activity (Cryptococcus neoformans [6]) | Activity [7] | Activity (Candida albicans [8]) | MIC (Candida parapsilosis [9]) [µM] | MIC [10] [µM]
1 | O=C1CC(c2ccc(OCc3ccccc3)cc2)Oc2cc(OCc3ccccc3)cc(O)c21 (centres undefined) | > 800 |  |  |  |  |  |  |  |  |  |  | 
2 | O=C(/C=C/c1ccccc1)c1ccc(OCc2ccccc2)cc1O |  | 100 (≈ 33 µg/mL) | > 800 |  |  |  |  |  |  |  |  | 
3 | O=c1cc(-c2ccc(O)cc2)oc2cc(O)cc(O)c12 [APIGENIN] |  | 6 (≈ 1.62 µg/mL) |  |  |  |  |  |  |  |  |  | 
4 | O=C1C[C@@H](c2ccc(O)c(-c3cc([C@@H]4CC(=O)c5c(O)cc(O)cc5O4)ccc3O)c2)Oc2cc(O)cc(O)c21 |  |  |  | inactive | inactive | inactive | inactive | inactive | inactive | inactive |  | 
5 | O=c1cc(-c2ccc(O)cc2)oc2ccccc12 |  |  |  |  |  |  |  |  |  |  | 200 (≈ 47.6 µg/mL) | 
6 | O=c1c(O)c(-c2ccc(O)c(-c3cc(-c4oc5cc(O)cc(O)c5c(=O)c4O)ccc3O)c2)oc2cc(O)cc(O)c12 |  |  |  | inactive | inactive | inactive | inactive | inactive | inactive | inactive |  | 
7 | O=C1CC(c2ccc(O)c(-c3cc(C4CC(=O)c5ccc(O)cc5O4)ccc3O)c2)Oc2cc(O)ccc21 (centres undefined) |  | 200 (≈ 102 µg/mL) |  | inactive | inactive | Active | inactive | inactive | inactive | inactive |  | 
8 | O=C1CC(c2ccccc2-c2ccccc2C2CC(=O)c3ccc(OCc4ccccc4)cc3O2)Oc2cc(OCc3ccccc3)ccc21 (centres undefined) |  |  |  | inactive | inactive | inactive | inactive | inactive | inactive | inactive |  | 
9 | COc1cc(OC)c2c(=O)cc(-c3ccc(OC)c(-c4cc(-c5cc(=O)c6c(OC)cc(OC)cc6o5)ccc4OC)c3)oc2c1 |  | 400 (≈ 249 µg/mL) |  | inactive | inactive | Active | inactive | inactive | inactive | inactive |  | 
10 | C[C@@H]1[C@H](O)[C@@H](C)/C=C/C=C/C=C/C=C/C=C/C=C/C=C/[C@H](O[C@@H]2O[C@H](C)[C@@H](O)[C@H](N)[C@@H]2O)C[C@@H]2O[C@](O)(C[C@@H](O)C[C@@H](O)[C@H](O)CC[C@@H](O)C[C@@H](O)CC(=O)O[C@H]1C)C[C@H](O)[C@H]2C(=O)O |  |  |  | Active | Active | Active | Active | Active | Active | Active |  | 
11 | COc1cc(O)c(C(=O)/C=C/c2ccc(OC)c(-c3cc(/C=C/C(=O)c4c(O)cc(OC)cc4OC)ccc3OC)c2)c(OC)c1 |  | 13 (≈ 8.15 µg/mL) |  | inactive | inactive | Active | inactive | inactive | inactive | inactive |  | 
12 | O=C1CC(c2ccc(OCc3ccccc3)c(-c3cc(C4CC(=O)c5c(O)cc(OCc6ccccc6)cc5O4)ccc3OCc3ccccc3)c2)Oc2cc(OCc3ccccc3)cc(O)c21 (centres undefined) | > 800 |  |  | inactive | inactive | inactive | inactive | inactive | inactive | Active |  | 
13 | O=c1cc(-c2ccccc2-c2ccccc2-c2cc(=O)c3ccccc3o2)oc2ccccc12 |  | > 800 |  | inactive | inactive | Active | inactive | inactive | Active | inactive |  | 800 (≈ 354 µg/mL)
14 | O=C(/C=C/c1ccc(OCc2ccccc2)c(-c2cc(/C=C/C(=O)c3ccc(OCc4ccccc4)cc3O)ccc2OCc2ccccc2)c1)c1ccc(OCc2ccccc2)cc1O |  |  |  | inactive | inactive | inactive | inactive | Active | inactive | inactive |  | 
15 | COc1ccc(-c2cc(=O)c3c(OC)cc(OC)cc3o2)cc1 [TRIMETHYLAPIGENIN] |  | > 800 |  |  |  |  |  |  |  |  |  | 
16 | O=C(/C=C/c1ccc(O)c(-c2cc(/C=C/C(=O)c3c(O)cc(O)cc3O)ccc2O)c1)c1c(O)cc(O)cc1O | 800 (≈ 434 µg/mL) |  | 13 (≈ 7.05 µg/mL) | inactive | inactive | inactive | inactive | Active | Active | Active |  | 200 (≈ 108 µg/mL)
17 | O=c1cc(-c2ccc(O)cc2)oc2ccc(-c3ccc4oc(-c5ccc(O)cc5)cc(=O)c4c3)cc12 |  |  |  | inactive | inactive | inactive | Active | inactive | inactive | inactive | 400 (≈ 190 µg/mL) | 
18 | O=C1CC(c2ccc(OCc3ccccc3)c(-c3cc(C4CC(=O)c5ccc(OCc6ccccc6)cc5O4)ccc3OCc3ccccc3)c2)Oc2cc(OCc3ccccc3)ccc21 (centres undefined) |  |  |  | inactive | inactive | inactive | inactive | inactive | inactive | inactive |  | 
19 | O=c1cc(-c2ccc(O)c(-c3cc(-c4cc(=O)c5c(O)cc(O)cc5o4)ccc3O)c2)oc2cc(O)cc(O)c12 |  | 100 (≈ 53.8 µg/mL) |  | inactive | inactive | Active | inactive | inactive | inactive | inactive |  | 
20 | O=c1cc(-c2ccccc2)oc2ccccc12 [FLAVONE] |  | 800 (≈ 178 µg/mL) | 100 (≈ 22.2 µg/mL) |  |  |  |  |  |  |  | 200 (≈ 44.4 µg/mL) | 100 (≈ 22.2 µg/mL)
21 | O=c1c(-c2c(-c3ccccc3)oc3ccccc3c2=O)c(-c2ccccc2)oc2ccccc12 |  |  | > 800 | inactive | inactive | inactive | Active | Active | Active | inactive | 400 (≈ 177 µg/mL) | > 800
22 | O=C(/C=C/c1ccc(O)cc1)c1c(O)cc(O)cc1O [4,2',4',6'-TETRAHYDROXYCHALCONE] | > 800 |  | 400 (≈ 109 µg/mL) |  |  |  |  |  |  |  |  | 800 (≈ 218 µg/mL)
23 | COc1ccc(-c2cc(=O)c3cc(-c4ccc5oc(-c6ccc(OC)cc6)cc(=O)c5c4)ccc3o2)cc1 |  |  |  | inactive | inactive | inactive | inactive | inactive | inactive | inactive |  | 
24 | O=C1CC(c2ccc(O)cc2)Oc2cc(O)ccc21 (centres undefined) |  | > 800 |  |  |  |  |  |  |  |  |  | 
25 | O=C(/C=C/c1ccccc1-c1ccccc1/C=C/C(=O)c1ccc(OCc2ccccc2)cc1O)c1ccc(OCc2ccccc2)cc1O |  | > 800 | > 800 | inactive | inactive | Active | inactive | Active | inactive | inactive |  | 
26 | O=C1CC(c2ccccc2-c2ccccc2C2CC(=O)c3ccc(O)cc3O2)Oc2cc(O)ccc21 (centres undefined) |  |  |  | inactive | inactive | inactive | inactive | inactive | inactive | inactive |  | 
27 | O=C(/C=C/c1ccc(OCc2ccccc2)c(-c2cc(/C=C/C(=O)c3c(O)cc(OCc4ccccc4)cc3OCc3ccccc3)ccc2OCc2ccccc2)c1)c1c(O)cc(OCc2ccccc2)cc1OCc1ccccc1 |  |  |  | inactive | inactive | inactive | inactive | inactive | inactive | inactive |  | 
28 | COc1ccc(/C=C/C(=O)c2c(O)cc(OC)cc2OC)cc1 [FLAVOKAWAIN A] |  | > 800 |  |  |  |  |  |  |  |  |  | 
